Experimental data from PMC13198257, “An aerosolized dual-action autotaxin inhibitor-PPARγ agonist for the treatment of pulmonary fibrosis” (Cell Reports Medicine, 2026).

Tested on: lung gene expression
Test: RNA sequencing of lung tissue (BLM/EL244 vs BLM)
Type: in vivo, mouse
Method: RNA quality was assessed using an Agilent TapeStation 4150 with the High Sensitivity […] ScreenTape (Agilent), according to the manufacturer’s protocols. For library preparation, the QuantSeq 3’mRNA-Seq Library Prep Kit (Lexogen) was used according to manufacturer’s instructions. Briefly, 500 ng of RNA from each sample was used for first-strand synthesis, followed by RNA template removal, and second-strand synthesis initiated by random primers. In-line barcodes were introduced at this step, and this was followed by magnetic bead-based purification. The resulting libraries were amplified for 15 cycles and re-purified, with quantity and quality assessed on a Qubit 4 Fluorometer with the Invitrogen Qubit dsDNA HS Assay and an Agilent Tapestation 4150 with the High Sensitivity D1000 assay kit, respectively. The quantified libraries were pooled equimolarly; 50ng of total library mix was used for Adapter Conversion PCR Amplification using the Universal Library Conversion Kit (App-A), Version: V1.0 (MGI Tech Co., Ltd.), according to the manufacturer’s instructions.
The quantity and quality of the purified adapter conversion PCR (AC-PCR) product were evaluated on a Qubit 4 Fluorometer with the Invitrogen Qubit dsDNA HS Assay and on an Agilent Tapestation 4150 with the High Sensitivity D1000 assay kit, respectively. This was followed by DNA denaturation, Single-Strand Circularisation, Enzymatic Digestion, Enzymatic Digestion Product Cleanup and Quality Control steps on 1 pmol of AC-PCR product, according to the Universal Library Conversion Kit (App-A) User Manual (Version: A3).
Finally, 60 fmol of ssCirDNA were used for DNB preparation and sequencing on a DNBSEQ-G400 platform at the BSRC Alexander Fleming Genomics Facility, using a G400 App-A FCS SE100 High-throughput Sequencing Set (MGI Tech Co., Ltd.), according to the manufacturer’s instructions.
Alignment of the FASTQ files was performed against the mouse genome build mm10 using a custom Bash script.[143] Read counting on the 3′ UTRs and differential expression analysis were conducted using the metaseqR2 bioconductor package.[144] Genes corresponding to the following biotypes were excluded: polymorphic_pseudogene, processed_transcript, pseudogene, IG_V_pseudogene, misc_RNA, IG_C_gene, IG_J_gene, IG_D_gene, IG_LV_gene, TR_V_gene, TR_V_pseudogene, TEC, and processed_pseudogene. Gene counts were normalized with DESEQ[145] through metaseqR2. Genes with more than 10 counts in at least 50% of the samples were kept for further processing. For differential expression analysis, the PANDORA algorithm[146] was used to estimate a meta p-value integrating the results from the DESEQ, DESEQ2,[147] edgeR,[148] limma,[149] NBPSeq,[150] and NOISeq[151] algorithms. All additional parameters were set to default values.
Pathway enrichment analysis was performed for the Gene Ontology Biological process (BP) and Molecular Function (MF) terms through GeneCodis 4.[152] The volcano plots, scatterplots, Venn diagrams, and dot plots were generated using the ggplot2 Bioconductor package.

With `O=C1NC(=O)C(Cc2ccc(OCCC3CCN(C(=O)OCc4cc(Cl)cc(Cl)c4)CC3)cc2)S1` (stereo not drawn) [EL244, 3,5-dichlorobenzyl 4-(2-(4-((2,4-dioxothiazolidin-5-yl)methyl)phenoxy)ethyl)piperidine-1-carboxylate] the “log2 nFC BLM/EL244 vs BLM” value (DEG Ccl9) was -1.37, the “log2 nFC BLM/EL244 vs BLM” value (DEG Ccnb1) was -2.41 and the “Cd300lg log2 nFC BLM/EL244 vs BLM” value (DEG Cd300lg, nFC: normalised fold change) was 1.18. For the same compound, the “log2 nFC BLM/EL244 vs BLM” value (DEG Cdc20) was -1.58, the “log2 nFC BLM/EL244 vs BLM” value (DEG Cdca2) was -1.33 and the “log2 nFC BLM/EL244 vs BLM” value (DEG Cenpa) was -1.31. The “log2 nFC BLM/EL244 vs BLM” value (DEG Cenpk) was -1.51, the “log2 nFC BLM/EL244 vs BLM” value (DEG Cenpw) was -1.33 and the “Cep85l log2 nFC BLM/EL244 vs BLM” value (DEG Cep85l, nFC: normalised fold change) was 1.02. For the same compound, the “log2 nFC BLM/EL244 vs BLM” value (DEG Cercam) was -1.37, the “Cfap100 log2 nFC BLM/EL244 vs BLM” value (DEG Cfap100, nFC: normalised fold change) was 0.89 and the “Cfap206 log2 nFC BLM/EL244 vs BLM” value (DEG Cfap206, nFC: normalised fold change) was 0.77. The “Cftr log2 nFC BLM/EL244 vs BLM” value (DEG Cftr, nFC: normalised fold change) was 0.96, the “Chia1 log2 nFC BLM/EL244 vs BLM” value (DEG Chia1, nFC: normalised fold change) was 1.16 and the “Chrdl1 log2 nFC BLM/EL244 vs BLM” value (DEG Chrdl1, nFC: normalised fold change) was 1.39. For the same compound, the “log2 nFC BLM/EL244 vs BLM” value (DEG Chsy3) was -1.56, the “Cidec log2 nFC BLM/EL244 vs BLM” value (DEG Cidec, nFC: normalised fold change) was 1.57 and the “log2 nFC BLM/EL244 vs BLM” value (DEG Cilp) was -1.39. The “log2 nFC BLM/EL244 vs BLM” value (DEG Ckap2) was -2.44, the “Ckm log2 nFC BLM/EL244 vs BLM” value (DEG Ckm, nFC: normalised fold change) was 2.32 and the “Ckmt2 log2 nFC BLM/EL244 vs BLM” value (DEG Ckmt2, nFC: normalised fold change) was 2.73. The “log2 nFC BLM/EL244 vs BLM” value (DEG Cks1b) was -1.54, the “Cldn5 log2 nFC BLM/EL244 vs BLM” value (DEG Cldn5, nFC: normalised fold change) was 0.97 and the “log2 nFC BLM/EL244 vs BLM” value (DEG Clec4a2) was -1.26. For the same compound, the “log2 nFC BLM/EL244 vs BLM” value (DEG Clec4n) was -1.39, the “log2 nFC BLM/EL244 vs BLM” value (DEG Col1a2) was -1.41 and the “log2 nFC BLM/EL244 vs BLM” value (DEG Col3a1) was -1.54. For the same compound, the “log2 nFC BLM/EL244 vs BLM” value (DEG Col5a1) was -1.52, the “log2 nFC BLM/EL244 vs BLM” value (DEG Col5a2) was -1.48 and the “log2 nFC BLM/EL244 vs BLM” value (DEG Col5a3) was -1.53. The “Colq log2 nFC BLM/EL244 vs BLM” value (DEG Colq, nFC: normalised fold change) was 1.81, the “Cox6a2 log2 nFC BLM/EL244 vs BLM” value (DEG Cox6a2, nFC: normalised fold change) was 1.42 and the “Crebl2 log2 nFC BLM/EL244 vs BLM” value (DEG Crebl2, nFC: normalised fold change) was 0.79. The “Crispld2 log2 nFC BLM/EL244 vs BLM” value (DEG Crispld2, nFC: normalised fold change) was 0.80, the “Cry2 log2 nFC BLM/EL244 vs BLM” value (DEG Cry2, nFC: normalised fold change) was 0.70 and the “Csf3r log2 nFC BLM/EL244 vs BLM” value (DEG Csf3r, nFC: normalised fold change) was 1.69. For the same compound, the “Csrnp1 log2 nFC BLM/EL244 vs BLM” value (DEG Csrnp1, nFC: normalised fold change) was 0.83, the “Csrp3 log2 nFC BLM/EL244 vs BLM” value (DEG Csrp3, nFC: normalised fold change) was 2.07 and the “Cst8 log2 nFC BLM/EL244 vs BLM” value (DEG Cst8, nFC: normalised fold change) was 1.41. For the same compound, the “Ctla2a log2 nFC BLM/EL244 vs BLM” value (DEG Ctla2a, nFC: normalised fold change) was 0.72, the “Ctla2b log2 nFC BLM/EL244 vs BLM” value (DEG Ctla2b, nFC: normalised fold change) was 0.96 and the “log2 nFC BLM/EL244 vs BLM” value (DEG Cxcl13) was -1.42. For the same compound, the “Cxcr2 log2 nFC BLM/EL244 vs BLM” value (DEG Cxcr2, nFC: normalised fold change) was 1.19, the “Cyp2a5 log2 nFC BLM/EL244 vs BLM” value (DEG Cyp2a5, nFC: normalised fold change) was 1.66 and the “Cyp2d22 log2 nFC BLM/EL244 vs BLM” value (DEG Cyp2d22, nFC: normalised fold change) was 0.97. The “Cyp2f2 log2 nFC BLM/EL244 vs BLM” value (DEG Cyp2f2, nFC: normalised fold change) was 0.79, the “Cyp4b1 log2 nFC BLM/EL244 vs BLM” value (DEG Cyp4b1, nFC: normalised fold change) was 1.18 and the “log2 nFC BLM/EL244 vs BLM” value (DEG Cyp7b1) was -1.41. The “Cytl1 log2 nFC BLM/EL244 vs BLM” value (DEG Cytl1, nFC: normalised fold change) was 1.67, the “D630024D03Rik log2 nFC BLM/EL244 vs BLM” value (DEG D630024D03Rik, nFC: normalised fold change) was 1.60 and the “Dgkh log2 nFC BLM/EL244 vs BLM” value (DEG Dgkh, nFC: normalised fold change) was 0.84. For the same compound, the “Dnali1 log2 nFC BLM/EL244 vs BLM” value (DEG Dnali1, nFC: normalised fold change) was 0.73, the “log2 nFC BLM/EL244 vs BLM” value (DEG Dok2) was -1.37 and the “Dpep1 log2 nFC BLM/EL244 vs BLM” value (DEG Dpep1, nFC: normalised fold change) was 0.71. For the same compound, the “Dpysl5 log2 nFC BLM/EL244 vs BLM” value (DEG Dpysl5, nFC: normalised fold change) was 1.90, the “Dusp1 log2 nFC BLM/EL244 vs BLM” value (DEG Dusp1, nFC: normalised fold change) was 0.86 and the “log2 nFC BLM/EL244 vs BLM” value (DEG E2f8) was -1.57.
